Measured values from US9833425B2, “Gentisic acid is used to improve systemic hemodynamics, hepatic mitochondrial function and lactate acidemia in patients with septic shock” (priority 2015, dated 2017).
Entries after “also recorded” stand apart in the source; their conditions may differ. Like-named read-outs stand apart in the source and are kept apart here. Marks after values point to notes of the source that are not given here.

How the values were obtained:
[1] = tested on: mitochondrial complex IV (cytochrome c oxidase); assay: Enzymatic activity of hepatic mitochondrial complex IV; format: biochemical, dog; conditions: hepatic mitochondria of treated septic dogs; mean ± SD
Description: As part of our assessment of mitochondrial function, we also measured the enzymatic activity of hepatic mitochondrial complex IV based on the rationale of Levy et al (10), since these investigators considered that dysfunction of complex IV was the most important determinant of abnormal mitochondrial function in SS. We determined complex IV activity spectrophotometrically by a temperature-controlled Ultrospec™ 2100 ultraviolet-visible spectrophotometer (Biopharmacia Biotech, Uppsala, Sweden) (17). Complex IV activity was measured at 25° C. by monitoring the absorbance decrease of reduced cytochrome c at 550 nm.

[2] = tested on: canine model of septic shock (Pseudomonas aeruginosa); conditions: for Arterial pH / LD (lactate dehydrogenase) / Oxygen delivery: mean ± SD
Description: We used a bacteremic model of Pseudomonas aeruginosa in this study as previously described (20). We used this particular model, since we wanted to measure mitochondrial function and LA under conditions of an acute and intensive inflammatory response analogous to that which would occur in a severe bout of SS in the clinical condition. […] Over the course of the experiment, we studied the animals (18 to 26 kg) while anesthetized with sufentanil citrate (0.05-0.3 ug/kg/min) and midazolam (5 ug/kg/min), and while being ventilated receiving 100% oxygen to maintain arterial around PO2 ˜400 mmHg. We adjusted the ventilator rate over the course of the study to attenuate the development of the metabolic acidosis that is usually observed (20).
To assess hemodynamics in this model, we inserted vascular catheters under sterile conditions as previously described (20), after which we connected the catheters to pressure transducers (Cobe, Argon) that were referenced relative to the left atrium and connected to a chart recorder (Astro-Med, W Warwick, R.I.). To measure MAP, we inserted a polyethylene catheter into the right femoral artery, while to measure pulmonary vascular pressures, we inserted a Swanz-Ganz catheter (Edwards Lifesciences, Irvine, Calif.) by percutaneous techniques through the right jugular vein. From the Swanz-Ganz catheter, we obtained measurements of pulmonary arterial pressure (Ppa), wedge pressure (Pwp), and right atrial pressure (Rap), as well as determinations of thermodilution cardiac output (CO).
From the hemodynamic measurements, we calculated SV from CO/heart rates (HR), stroke work (SW) from [SV*(MAP−Pwp)], and systemic vascular resistance (SVR) from [(MAP-Rap)/CO)*80]. We also normalized measurements of SV, SW, and CO and organ oxygen delivery (DO2) to body weight. We calculated DO2 from CO×Hb×1.34 ml oxygen per gram of Hb, since Hb was 100% saturated at a PO2 of ˜400 mmHg. From the arterial catheter and distal port of the Swanz-Ganz catheter, we also took arterial and mixed venous blood samples, respectively, for analyses of PO2, PCO2, and pH.
In addition, we placed another polyethylene catheter into the left jugular vein, also by percutaneous techniques, for infusion of the bacteria and intravenous fluids and for obtaining blood chemistry and hematological samples. Since the baseline Pwp found in this model usually averages≈8-10 mmHg, we infused normal saline solution as necessary to maintain Pwp relatively constant over the duration of this study. […] The Clinical Chemistry Laboratory at the Health Sciences Centre performed the clinical laboratory tests.
We included 5 groups of animals in the initial phase of this study. These groups included a septic control group, a non-septic control group, a norepinephrine (NE) septic group, a gentisic acid sodium salt (GSS) septic group, and a GSS non-septic group. In each group, we made baseline measurements of hemodynamics and blood parameters after approximately 1 hr period of stability. In the septic groups, after initiation of the bacterial infusion, we repeated the measurements in the septic shock condition. […] In the septic control group, after the SS condition, we started an infusion of 5% dextrose in water (D5W) at approximately 40 ml/hr for the remainder of the study, since D5W was the diluent for both the NE and GSS treatments.
In all groups, we then made posttreatment measurements at 3 hrs and 5 hrs after completion of the septic shock/sham-shock determinations.
In this supplemental study, we examined the effect of gallic acid on hemodynamics and mitochondrial function in our Pseudomonas aeruginosa model in a manner identical to that described for GSS treatment.

hepatic mitochondria = assay: Oxygen consumption rates of hepatic mitochondria harvested after in vivo treatment (Seahorse XF24); set-up: species or system dog; conditions: treated septic dogs; FCCP 4 uM
Description: After completion of the in-vivo measurements, we administered sodium pentobarbital (110 mg/kg) to euthanize the animal. In a subset of animals of each group, we immediately harvested a piece of liver and isolated the mitochondria as described by Schnaitman and Greenawalt (23). Briefly, we minced the extracted liver in mitochondrial isolation buffer (MSHE) that includes 70 mM sucrose, 210 mM mannitol, 5 mM HEPES, 1 mM EGTA, and fatty acid free bovine serum albumin (BSA). We then disrupted the tissue using a drill-driven glass/Teflon dounce homogenizer. We centrifuged the homogenate three times, after which we re-suspended the final pellet in a minimal volume of MSHE+BSA and determined protein (mg/ml). We diluted the mitochondrial preparation in cold mitochondrial assay solution (MAS) that contained 70 mM sucrose, 220 mM mannitol, 10 mM KH2PO4, 5 mM MgCl2, 2 mM HEPES, 1 mM EGTA, and BSA for plating directly onto the custom Seahorse 24-well culture dish (˜20 ug mitochondrial protein/50 ul per well; see further below). After centrifugation of the plate and addition of appropriate substrates, we viewed the mitochondria under a microscope to ensure consistent adherence to the well. We then transferred the plate to the XF24 Analyzer for initiation of the protocol as described below (17).
To examine mitochondrial function in this model, we used a novel new technology that is capable of measuring dynamic changes in mitochondrial function, not easily attainable by other technologies (17). The Seahorse® XF24 extracellular flux analyser (Seahorse Bioscience, MA, USA) refines the technology by which mitochondrial oxygen consumption can be measured. This technology uses a piston to reversibly enclose a small volume (7 ul) above the mitochondria that can monitor oxygen uptake in that volume for 2-5 min, then raises the piston, allowing the bulk incubation medium (˜1 ml) to re-equilibrate. The ability to make up to 4 additions during the experiment allows mitochondrial respiration to be measured under various metabolic conditions. This piece of equipment has never been used to measure mitochondrial function in SS.
In this protocol, we sequentially measured mitochondrial function under various metabolic conditions (17). To obtain basal OCR, we first added a substrate to the preparation that contained pyruvate (10 mM) and malate (2 mM). We then added ADP (adenosine-diphosphate; 4 mM) that allows ATP synthase to function, producing an increase in OCR (coupled OCR) that is termed “state3ADP”. When the ATP/ADP ratio approaches equilibrium, pmf rises, after which proton reentry through the synthase stops and respiration slows. We terminated coupled respiration (i.e. state3ADP) by the addition of the ATP synthase inhibitor oligomycin (2.0 uM) in which we achieved “stateoligomycin” where ATP recycling cannot contribute and there is a stable decrease in OCR. We then added the protonophore, FCCP (4 uM; carbonyl cyanide p-trifluoromethoxy-phenylhydrazone). FCCP leads to uncoupled respiration in which we previously titrated the concentration of FCCP to yield a maximal effect. In mitochondria in which ATP synthase activity is a limiting factor, uncoupled respiration may be greater than coupled respiration. […] We finally added rotenone (R; 2 uM) and antimycin A (AA; 2 uM) which are inhibitors of the electron transport chain (ETC) complexes, I and III, respectively. When added to the mitochondrial preparation, these inhibitors produce a marked decline in mitochondrial respiration since the electron transport chain is inhibited.
With each treatment group, we obtained measurements of basal OCR, coupled OCR (i.e. state3ADP), and maximal OCR. In addition, we calculated coupled and uncoupled respiratory control ratios from state3ADP/stateoligomycin and uncoupled respiration/state FCCP/stateoligomycin, respectively. […]

[3] = septic dogs, 3 hrs posttreatment
[4] = septic dogs, 5 hrs posttreatment
[5] = septic dogs, baseline (before bacteria/treatment)
[6] = septic dogs, septic shock (before treatment)

## NC[C@H](O)c1ccc(O)c(O)c1 [NE, norepinephrine]
[1]
  enzymatic activity of mitochondrial complex IV: 3.89±0.33 umol/min/mg protein
[2]; dog, in vivo
  effect of treatment on troponin (index of myocardial injury): increased in the NE septic group
[2]; septic dogs, 3 hr and 5 hr vs septic control group, did not reach statistical significance
  effect of treatment on stroke work index: an increase in stroke work index
[2]; septic dogs, 3 hrs and 5 hrs posttreatment vs septic shock condition
  effect of treatment on systemic vascular resistance (SVR): increased SVR back to the baseline value; also recorded: an increase in SVR
[2]; [3]
  Arterial pH: 7.20 ± .04*^+$
  LD (lactate dehydrogenase): 315 ± 113*^+$ IU
  Oxygen delivery: 29 ± 8 mL/min/kg
[2]; [4]
  Arterial pH: 7.16 ± 0.06*^+$
  LD (lactate dehydrogenase): 409 ± 167*^+$^ IU
  Oxygen delivery: 28 ± 10 mL/min/kg
[2]; [5]
  Arterial pH: 7.38 ± .05
  LD (lactate dehydrogenase): 43 ± 23 IU
  Oxygen delivery: 20 ± 3 mL/min/kg
[2]; septic dogs, infusion started at septic shock condition, 3 hr and 5 hr post treatment
  effect of treatment on mean arterial pressure (MAP): increased MAP back to the baseline value; also recorded: return in MAP to baseline
[2]; septic dogs, over the course of the study
  effect of treatment on blood lactate concentration: serum lactate increased; also recorded: significantly increased
[2]; [6]
  Arterial pH: 7.26 ± .04*^+$
  LD (lactate dehydrogenase): 177 ± 97*^+ IU
[2]; septic dogs, septic shock condition (before treatment)
  Oxygen delivery: 26 ± 11 mL/min/kg
[2]; septic dogs, vs septic control group and gentisic septic group
  effect of treatment on oxygen delivery (DO2): increase in DO2
Hepatic mitochondria
  maximal (uncoupled) respiration (OCR after FCCP) of hepatic mitochondria: restore the increase in OCR in response to FCCP
